Experimental data taken from PubChem BioAssay AID1963426 (Molecular Pharmacology Branch, DTP, NCI, 2024).

System: 186277-243-T-J2-PDC complex spheroid growth, % test/control
Assay: Anticancer human tumor 186277-243-T-J2-PDC patient-derived colon adenocarcinoma cell line growth inhibition [Asc]
Conditions: for IC50: curve of first compound; for viability, T/C: stronger effect = lower value
In short: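 Tumor cells were grown as multicellular spheroids with stromal HUVEC and mesenchymal stem cells and treated singly or in combination. Concentrations fell in half-log steps from the clinical Cmax, or from 10 microM where none was known.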

[1] = second compound 0.1 µM, first compound 0.00316 µM
[2] = second compound 0.1 µM, first compound 0.01 µM
[3] = second compound 0.1 µM, first compound 0.0316 µM
[4] = second compound 0.1 µM, first compound 0.1 µM
[5] = second compound 0.316 µM, first compound 0.00316 µM
[6] = second compound 0.316 µM, first compound 0.01 µM
[7] = second compound 0.316 µM, first compound 0.0316 µM
[8] = second compound 0.316 µM, first compound 0.1 µM
[9] = second compound 1 µM, first compound 0.00316 µM
[10] = second compound 1 µM, first compound 0.01 µM
[11] = second compound 1 µM, first compound 0.0316 µM
[12] = second compound 1 µM, first compound 0.1 µM
[13] = second compound 3.16 µM, first compound 0.00316 µM
[14] = second compound 3.16 µM, first compound 0.01 µM
[15] = second compound 3.16 µM, first compound 0.0316 µM
[16] = second compound 3.16 µM, first compound 0.1 µM
[17] = second compound 10 µM, first compound 0.00316 µM
[18] = second compound 10 µM, first compound 0.01 µM
[19] = second compound 10 µM, first compound 0.0316 µM
[20] = second compound 10 µM, first compound 0.1 µM
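Further: spheroids exposed to agents for 7 days.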
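Wherever viability, T/C is given: 100% = DMSO vehicle control wells.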

Cc1nc(N2CCC3(CC2)COC(C)C3N)c(CO)nc1Sc1ccnc(N)c1Cl (stereo not given) + CNC(C)C(=O)NC1CN(S(=O)(=O)c2cccc(S(=O)(=O)N3CCC4CCC(C(=O)NC(c5ccccc5)c5ccccc5)N4C(=O)C(NC(=O)C(C)NC)C3)c2)CCC2CCC(C(=O)NC(c3ccccc3)c3ccccc3)N2C1=O
IC50 (second compound 0.01 µM): > 3000 nM
IC50 (second compound 0.0316 µM): > 3000 nM
IC50 (second compound 0.1 µM): > 3000 nM
IC50 (second compound 0.316 µM): > 3000 nM
IC50 (second compound 1 µM): > 3000 nM
viability, T/C (second compound 0.01 µM, first compound 0.00949 µM): 106%
viability, T/C (second compound 0.01 µM, first compound 0.03 µM): 102%
viability, T/C (second compound 0.01 µM, first compound 0.0949 µM): 112%
viability, T/C (second compound 0.01 µM, first compound 0.3 µM): 93%
viability, T/C (second compound 0.01 µM, first compound 0.949 µM): 97.8%
viability, T/C (second compound 0.01 µM, first compound 3 µM): 106%
viability, T/C (second compound 0.0316 µM, first compound 0.00949 µM): 98.8%
viability, T/C (second compound 0.0316 µM, first compound 0.03 µM): 111%
viability, T/C (second compound 0.0316 µM, first compound 0.0949 µM): 107%
viability, T/C (second compound 0.0316 µM, first compound 0.3 µM): 91.6%
viability, T/C (second compound 0.0316 µM, first compound 0.949 µM): 104%
viability, T/C (second compound 0.0316 µM, first compound 3 µM): 104%
viability, T/C (second compound 0.1 µM, first compound 0.00949 µM): 107%
viability, T/C (second compound 0.1 µM, first compound 0.03 µM): 101%
viability, T/C (second compound 0.1 µM, first compound 0.0949 µM): 103%
viability, T/C (second compound 0.1 µM, first compound 0.3 µM): 97.7%
viability, T/C (second compound 0.1 µM, first compound 0.949 µM): 102%
viability, T/C (second compound 0.1 µM, first compound 3 µM): 119%
viability, T/C (second compound 0.316 µM, first compound 0.00949 µM): 96%
viability, T/C (second compound 0.316 µM, first compound 0.03 µM): 104%
viability, T/C (second compound 0.316 µM, first compound 0.0949 µM): 106%
viability, T/C (second compound 0.316 µM, first compound 0.3 µM): 103%
viability, T/C (second compound 0.316 µM, first compound 0.949 µM): 101%
viability, T/C (second compound 0.316 µM, first compound 3 µM): 100%
viability, T/C (second compound 1 µM, first compound 0.00949 µM): 112%
viability, T/C (second compound 1 µM, first compound 0.03 µM): 110%
viability, T/C (second compound 1 µM, first compound 0.0949 µM): 99.6%
viability, T/C (second compound 1 µM, first compound 0.3 µM): 102%
viability, T/C (second compound 1 µM, first compound 0.949 µM): 105%
viability, T/C (second compound 1 µM, first compound 3 µM): 101%

NC1CCC(NC2CC2c2ccccc2)CC1 (stereo not given) + Cc1c(S(C)(=O)=O)c(-c2cc(F)cc(N3CCN(c4ccc(NS(=O)(=O)c5ccc(NC(CCN6CCC(C(=O)OCCCP(=O)(O)O)CC6)CSc6ccccc6)c(S(=O)(=O)C(F)(F)F)c5)cc4)CC3)c2)c(-c2ccc(Cl)cc2)n1C(C)C
IC50 (second compound 0.1 µM): > 100 nM
IC50 (second compound 0.316 µM): > 100 nM
IC50 (second compound 1 µM): > 100 nM
IC50 (second compound 3.16 µM): > 100 nM
IC50 (second compound 10 µM): > 100 nM
viability, T/C (second compound 0.1 µM, first compound 0.000316 µM): 102%
viability, T/C (second compound 0.1 µM, first compound 0.001 µM): 102%
viability, T/C [1]: 96.9%
viability, T/C [2]: 94.8%
viability, T/C [3]: 94.4%
viability, T/C [4]: 91.3%
viability, T/C (second compound 0.316 µM, first compound 0.000316 µM): 124%
viability, T/C (second compound 0.316 µM, first compound 0.001 µM): 94.3%
viability, T/C [5]: 111%
viability, T/C [6]: 104%
viability, T/C [7]: 89.9%
viability, T/C [8]: 78.1%
viability, T/C (second compound 1 µM, first compound 0.000316 µM): 99.8%
viability, T/C (second compound 1 µM, first compound 0.001 µM): 103%
viability, T/C [9]: 113%
viability, T/C [10]: 93%
viability, T/C [11]: 96.7%
viability, T/C [12]: 89%
viability, T/C (second compound 3.16 µM, first compound 0.000316 µM): 103%
viability, T/C (second compound 3.16 µM, first compound 0.001 µM): 104%
viability, T/C [13]: 100%
viability, T/C [14]: 92.1%
viability, T/C [15]: 95.6%
viability, T/C [16]: 91.3%
viability, T/C (second compound 10 µM, first compound 0.000316 µM): 98.3%
viability, T/C (second compound 10 µM, first compound 0.001 µM): 101%
viability, T/C [17]: 97.8%
viability, T/C [18]: 92.8%
viability, T/C [19]: 97.8%
viability, T/C [20]: 98%

O=C(c1ccc(F)c(F)c1Nc1ccc(I)cc1F)N1CC(O)([C@@H]2CCCCN2)C1 + Cc1c(S(C)(=O)=O)c(-c2cc(F)cc(N3CCN(c4ccc(NS(=O)(=O)c5ccc(NC(CCN6CCC(C(=O)OCCCP(=O)(O)O)CC6)CSc6ccccc6)c(S(=O)(=O)C(F)(F)F)c5)cc4)CC3)c2)c(-c2ccc(Cl)cc2)n1C(C)C
IC50 (second compound 0.1 µM): 93.4 nM
IC50 (second compound 0.316 µM): 73.3 nM
IC50 (second compound 1 µM): 65.9 nM
IC50 (second compound 3.16 µM): 57.8 nM
IC50 (second compound 10 µM): 52 nM
viability, T/C [1]: 95.5%
viability, T/C [2]: 92.4%
viability, T/C [3]: 107%
viability, T/C [4]: 47%
viability, T/C (second compound 0.1 µM, first compound 0.316 µM): 9.22%
viability, T/C (second compound 0.1 µM, first compound 1 µM): 4.73%
viability, T/C [5]: 101%
viability, T/C [6]: 97.8%
viability, T/C [7]: 88.8%
viability, T/C [8]: 35.7%
viability, T/C (second compound 0.316 µM, first compound 0.316 µM): 5.96%
viability, T/C (second compound 0.316 µM, first compound 1 µM): 2.79%
viability, T/C [9]: 102%
viability, T/C [10]: 99.2%
viability, T/C [11]: 103%
viability, T/C [12]: 20.7%
viability, T/C (second compound 1 µM, first compound 0.316 µM): 2.79%
viability, T/C (second compound 1 µM, first compound 1 µM): 1.09%
viability, T/C [13]: 93.5%
viability, T/C [14]: 93.1%
viability, T/C [15]: 94.7%
viability, T/C [16]: 10.2%
viability, T/C (second compound 3.16 µM, first compound 0.316 µM): 1.13%
viability, T/C (second compound 3.16 µM, first compound 1 µM): 0.48%
viability, T/C [17]: 88.1%
viability, T/C [18]: 93.5%
viability, T/C [19]: 82%
viability, T/C [20]: 7.98%
viability, T/C (second compound 10 µM, first compound 0.316 µM): 4.2%
viability, T/C (second compound 10 µM, first compound 1 µM): 0.52%
